Measurements taken from PMC7698842, “Lanostane Triterpenoid Metabolites from a Penares sp. Marine Sponge Protect Neuro-2a Cells against Paraquat Neurotoxicity” (Molecules, 2020).

Assays:
[1] = system: mitochondrial membrane potential in PQ-treated Neuro-2a cells; assay: Mitochondrial membrane potential detection (TMRM) in PQ-treated Neuro-2a cells; format: cell-based, mouse; conditions: compound 10 μM, PQ 500 µM 1 h
Method: The cells (1 × 10^4 cells/well of a 96-well plate) were incubated with compound solutions (1 and 10 µM) during 1 h. Then, PQ was added to cell suspension to a resulting concentration of 500 µM for incubation during 1 h. Cells incubated without PQ and compounds and with PQ alone were used as positive and negative controls, respectively. The tetramethylrhodamine methyl (TMRM) (Sigma-Aldrich, St. Louis, MO, USA) solution at 500 nM was added in each well and cells were incubated for 30 min at 37 °C. The intensity of fluorescence was measured with a PHERAstar FS plate reader (BMG Labtech, Ortenberg, Germany) at λex = 540 nm and λem = 590 nm. The data were processed by MARS Data Analysis v. 3.01R2 (BMG Labtech, Ortenberg, Germany). The results were presented as percent of positive control data.

[2] = Cytotoxicity toward Neuro-2a cells (MTT assay); format: cell-based, mouse; conditions: mouse, Neuro-2a neuroblastoma cells, 24 h
Method: The cells of mouse neuroblastoma cell line Neuro-2a (ATCC® CCL-131™; American Type Culture Collection, Manassas, VA, USA) were cultured in Dulbecco’s modified Eagle’s medium (DMEM) containing 10% fetal bovine serum (Biolot, St. Petersburg, Russia) and 1% penicillin/streptomycin (Biolot, St. Petersburg, Russia) at 37 °C in a humidified atmosphere with 5% (v/v) CO2. Initially, cells were incubated in cultural flasks until sub-confluent (~80%). For testing, Neuro-2a cells were seeded in 96- or 6-well plates and experiments were started after 24 h.
The cells (1 × 10^4 cells/well of a 96-well plate) were incubated with different concentrations of studied compounds during 24 h. After that, cell viability was determined by the MTT (3-(4,5-dimethylthiazol-2-yl)-2,5-diphenyltetrazolium bromide) method according to the manufacturer’s instructions (Sigma-Aldrich, St. Louis, MO, USA). Absorbance of the converted formazan was measured using a Multiskan FC microplate photometer (Thermo Scientific, Waltham, MA, USA) at λ = 570 nm. The results were presented as percent of control data, and concentration of cell viability inhibition on 50% (IC50) was calculated.

[3] = DPPH radical scavenging assay (cell-free); conditions: 30 min, MeOH
Method: The 2,2-diphenyl-1-picryl-hydrazyl-hydrate (DPPH) radical scavenging activity was tested as described previously. The compounds were dissolved in MeOH, and the solutions (120 µL) were dispensed into wells of a 96-well microplate. The DPPH (Sigma-Aldrich, Steinheim, Germany) was dissolved in MeOH at a concentration of 7.5 × 10^−3 M and the solution (30 µL) was added to each well. The concentrations of tested compounds in the mixtures were 10 and 100 µM. Ascorbic acid was used as a positive control. The mixtures were shaken and left for 30 min. The absorbance of the resulting solutions was measured at λ = 520 nm with a MultiscanFC plate reader (Thermo Scientific, Waltham, MA, USA). The concentration scavenging 50% of the DPPH radical (EC50) was calculated for each compound.

With `CC(C)=CCC[C@@H](C)[C@H]1CC[C@@]2(C(=O)O)C3=C(CC[C@]12C)[C@@]1(C)CCC(=O)C(C)(C)[C@@H]1CC3` [Compound 4, penasterone] the “increase of intensity of TMRM fluorescence (PQ-induced mitochondrial dysfunction diminished)” value [1] was 28%, the activity at 24 h, 10 µM ([2]; Neuro-2a cell viability, 10 μM, read-out: Cytotoxicity (MTT Assay) % of Control at 10 μM) was 95.3 ± 2.7% and the IC50 at 24 h ([2]; Neuro-2a cells) was greater than 100 µM. The EC50 [3] was greater than 100 µM.
